Results from patent publication US20220356147A1, “COMPOUNDS AND METHODS FOR POTENTIATING COLISTIN ACTIVITY” (University of Notre Dame du Lac, priority 2019, published 2022).
Read-outs that look alike come from different tables or passages of the source.

Columns and labels:
[1] = tested on: 4T1 cells; experiment: Cell line toxicity (MTT); type: cell-based
Procedure: Cell line Toxicity: 4T1 cells (ATCC Manassas, Va.) were plated at a density of 1×10^4 cells/well in 96-well plates in Roswell Park Memorial Institute Media 1640 (RPMI)
(Gibco, Gaithersburg, MD) supplemented with 10% Fetal Bovine Serum (Gibco), 2 mM GlutaMAX (Gibco) and 50 μM 2-mercaptoethanol (Sigma Aldrich, St. Louis, Mo.) and incubated at 37 C under a 5% CO2 atmosphere in the dark for 18 h. Cell cultures were treated with serial dilutions of compounds in the presence or absence of 1 μg/mL colistin (3 replicates per condition) and incubated for an additional 18 hours. The following control conditions were used: media only (blank), 1% Triton X100 (0% cell viability), 0.5% DMSO (100% cell viability). Each condition was then treated with 10% volume of a 5 mg/mL solution of 3-(4,5-dimethylthiazol-2-yl)-2,5-diphenyltetrazolium bromide (MTT) (Sigma Aldrich) in sterile filtered 1X phosphate buffered saline (PBS) and incubated for 2 h. at 37 C in 5% CO2, after which the media was aspirated and the resulting formazan crystals were resuspended in 100 μL acidified (4 mM HCl) isopropanol. The 96-well plate was then read at 540 nm on a FLUOstar Optima (BMG Labtech Cary, NC) microplate reader. Cell viability was calculated as a percentage using the two previously mentioned controls.

[2] = tested on: AB 4106; experiment: Time-kill curves with colistin; type: cell-based, A. baumannii; conditions: 5 μM compound + 0.5, 4 or 32 μg/mL colistin, FIG. 1
Procedure: (§1) Time—kill Curves: Strains were cultured overnight in CAMHB and subcultured to 1.04×10^6 CFU/mL for AB 4106 and 1.96×10^6 CFU/mL for KP B9 in fresh CAMHB. The subculture was then transferred to culture tubes in 3 mL aliquots, which were dosed with adjuvant, colistin, or adjuvant plus colistin. One aliquot was not dosed to serve as a control. All samples were then incubated at 37 C with shaking. At 2, 4, 6, 8, and 24-hour time points, 100 μL was taken from each sample and ten-fold diluted in CAMHB up to 7 times. 100 μL of diluted culture was plated on LB (Lennox) agar and incubated at 37 C overnight. The total number of bacterial colonies on each plate was determined using a SphereFlash colony counter (NEUTEC Group Inc.).

[3] = tested on: KP B9; experiment: Time-kill curves with colistin; type: cell-based, K. pneumoniae; conditions: 5 μM compound + 0.5, 4 or 32 μg/mL colistin, FIG. 2
Procedure: as §1

[4] = tested on: A. baumannii 4106 (AB4106); experiment: Broth microdilution, colistin potentiation; type: cell-based
Procedure: (§2) Broth microdilution method for measurement of colistin potentiation: Bacteria were cultured for 4 to 6 hours in CAMHB and diluted to 1.04×10^6 CFU/mL for AB 4106 and 1.96×10^6 CFU/mL for KP B9 in fresh CAMHB. To aliquots (4 mL) was added compound from stock solutions in DMSO. One aliquot was not dosed to allow measurement of the colistin MIC in the absence of compound. A 1 mL aliquot of each sample was dosed with colistin, and from this 200 μL was dispensed into the first row of a 96-well microtiter plate in which all but the final row of subsequent wells was prefilled with 100 μL of the corresponding compound dosed bacterial suspension The final row was filled with media to act as a sterility control and blank. Row one wells were mixed 6-7 times, then, 100 μL was withdrawn and transferred to row two. Row two wells were mixed 6-7 times followed by a 100 μL transfer from row two to row three. This procedure was used to serially dilute the rest of the rows of the microtiter plate, excluding the last prefilled row, which was used to measure growth in the presence of compound alone. Plates were then sealed with GLAD
(§3) Press'n Seal and incubated under stationary conditions at 37° C. […] MIC values were determined as the minimum concentration required to achieve 90% growth inhibition compared to growth in untreated wells.

[5] = tested on: AB 4106; experiment: Broth microdilution, standalone MIC of compound; type: cell-based, A. baumannii; conditions: read-out: MIC of compound alone, AB 4106
Procedure: Broth microdilution method for the determination of minimum inhibitory concentrations: Bacteria were cultured for 4 to 6 hours in CAMHB and subcultured to 1.04×10^6 CFU/mL for AB 4106 and 1.96×10^6 CFU/mL for KP B9 in fresh CAMHB. To aliquots (1 mL) was added compound from stock solutions in DMSO, such that the compound concentration equaled the highest concentration tested. Samples were then dispensed (200 μL) into the first row of a 96-well microtiter plate in which all but the final row of subsequent wells were prefilled with 100 μL of the untreated bacterial subculture. The final row was filled with media to act as a sterility control and blank. Row one wells were mixed 6-7 times, then, 100 μL was withdrawn and transferred to row two. Row two wells were mixed 6-7 times followed by a 100 μL transfer from row two to row three. This procedure was used to serially dilute the rest of the rows of the microtiter plate, excluding the last prefilled row, which was used to measure growth in the absence of compound. Plates were then sealed with GLAD Press'n Seal and incubated under stationary conditions at 37 C. […] MIC values were determined as the minimum concentration required to achieve 90% growth inhibition compared to growth in untreated wells.

[6] = tested on: AB 4112; experiment: Colistin potentiation, colistin-resistant isolate panel; type: cell-based, A. baumannii; conditions: compound at 5 μM
[7] = tested on: K. pneumoniae B9 (KPB9); experiment: Broth microdilution, colistin potentiation; type: cell-based; conditions: for ability to break colistin resistance, KPB9: compound at 500 nM
Procedure: as §2, §3

[8] = tested on: AB 3942; experiment: Colistin potentiation, colistin-resistant isolate panel; type: cell-based, A. baumannii; conditions: compound at 5 μM
[9] = tested on: AB4106 and KPB9; experiment: Initial screen for colistin resistance suppression, statements in words for both strains; type: cell-based, A. baumannii and K. pneumoniae; conditions: compound at 5 μM
Procedure: as §2, §3

[10] = tested on: AB 3941; experiment: Colistin potentiation, colistin-resistant isolate panel; type: cell-based, A. baumannii; conditions: compound at 5 μM
[11] = tested on: AB 17978 mcr-1; experiment: as above; type: cell-based, A. baumannii; conditions: compound at 5 μM
[12] = tested on: AB 4119; experiment: as above; type: cell-based, A. baumannii; conditions: compound at 5 μM
[13] = tested on: A. baumannii, K. pneumoniae, and Escherichia coli; experiment: Earlier finding: suppression of colistin resistance by IMD-0354; type: cell-based; conditions: 5 μM (1.9 μg/mL) IMD-0354
[14] = compound at 5 μM, colistin alone 2048 μg/mL
[15] = Acinetobacter baumannii, 16 h, standalone, no colistin

| Compound | no measurable toxicity up to ([1]; mouse, 18 h) [µM] | Colistin MIC fold reduction, AB 4106 ([4]; compound at 1 μM) [fold] | Colistin MIC fold reduction, AB 4106 ([4]; compound at 3 μM) [fold] | Colistin MIC fold reduction, AB 4106 [4, 14] [fold] | MIC [5, 15] [µM] | Colistin MIC fold reduction, AB 4112 [6] | ability to break colistin resistance, KPB9 [7] | Colistin MIC fold reduction, AB 3942 [8] | Colistin MIC fold reduction, AB 3941 [10] | Colistin MIC fold reduction, AB 17978 mcr-1 [11] | Colistin MIC fold reduction, AB 4119 [12] | also measured |
| --- | --- | --- | --- | --- | --- | --- | --- | --- | --- | --- | --- | --- |
| O=C(Nc1cc(Cl)cc(Cl)c1)c1cc(Cl)ccc1O [Compound 22] | > 200 | 512 | 1024 | 1024 | > 200 |  |  |  |  |  |  | Time-kill: potentiation of colistin activity [2]: significant potentiation of colistin activity; Time-kill: potentiation of colistin activity [3]: significant potentiation of colistin activity |
| O=C(Nc1ccc(C(F)(F)F)c(F)c1)c1cc(Cl)ccc1O [Compound 29, 5-chloro-N-(3-fluoro-4-(trifluoromethyl)phenyl)-2-hydroxybenzamide] |  | 512 | 1024 | 2048 | > 200 | (2048) fold | retained the ability to break colistin resistance | (≥4096) fold | (1024) fold | (512) fold | (512) fold | colistin MIC relative to breakpoint levels, KPB9 ([7]; compound at 250 nM, breakpoint 2 μg/mL): reduced the colistin MIC below breakpoint levels; Colistin potentiation activity in words, compared to IMD-0354 [9]: activity equivalent to IMD-0354 |
| O=C(Nc1cc(F)cc(F)c1)c1cc(Cl)ccc1O [Compound 21] |  | 64 | 512 | 1024 | > 200 |  |  |  |  |  |  | CT50 (cytotoxicity) ([1]; mouse, 18 h): 210 µM; toxicity compared to IMD-0354 ([1]; mouse, 18 h): comparable toxicity to IMD-0354 |
| O=C(Nc1cc(Br)cc(Br)c1)c1cc(Cl)ccc1O [Compound 23] | > 200 | 256 | 1024 | 1024 | > 200 | (1024) fold | retained the ability to break colistin resistance | (≥2048) fold | (512) fold | (128) fold | (1024) fold |  |
| O=C(Nc1ccc(C(F)(F)F)cc1)c1cc(Cl)ccc1O [Compound 26] | > 200 | 128 | 1024 | 2048 | > 200 |  |  |  |  |  |  | Colistin potentiation activity in words, compared to IMD-0354 [9]: activity equivalent to IMD-0354 |
| O=C(Nc1cc(Cl)cc(Cl)c1)c1cc(I)ccc1O [Compound 51] |  | 512 | 2048 | 2048 | > 200 | (2048) fold | retained the ability to break colistin resistance | (≥4096) fold | (1024) fold | (512) fold | (2048) fold |  |
| O=C(Nc1cc(C(F)(F)F)cc(C(F)(F)F)c1)c1cc(Cl)ccc1O [IMD-0354, reference compound] |  | 256 | 512 | 1024 |  | (1024) fold |  | (≥2048) fold | (512) fold | (128) fold | (256) fold | reduction of the MIC of colistin [13]: ≥ 4096 fold; MIC ([5]; Acinetobacter baumannii, 16 h): 50 µM |
| O=C(Nc1cc(C(F)(F)F)cc(C(F)(F)F)c1Cl)c1cc(Cl)ccc1O [Compound 25] |  | 512 | 1024 | 2048 |  |  |  |  |  |  |  | Colistin MIC against AB 4112 [6]: 1 µg/mL; toxicity compared to IMD-0354 ([1]; 4T1 cells, MTT): ca. two-fold more toxic than IMD-0354; CT50 (cytotoxicity) ([1]; 4T1 cells, MTT, 18 hours): 110 µM; Colistin MIC against AB 3942 [8]: 1 µg/mL; Colistin MIC against AB 4106 ([4]; in presence of compound at 1 μM): 4 µg/mL; Colistin MIC against AB 4106 ([4]; in presence of compound at 3 μM): 2 µg/mL; Colistin MIC against AB 4106 ([4]; in presence of compound at 5 μM): 1 µg/mL; MIC ([5]; standalone, no colistin): 50 µM; Colistin MIC against AB 3941 [10]: 1 µg/mL; Colistin MIC against AB 17978 mcr-1 [11]: 0.5 µg/mL; Colistin MIC against AB 4119 [12]: 1 µg/mL |
